Patent publication US20020052377A1, “Method for treating angina” (priority 2000, published 2002)
Like-named read-outs stand apart in the source and are kept apart here.

How the values were obtained:
[1] = Peak and trough ranolazine plasma concentrations, IR regimens (Example 3); format: in vivo; conditions: human, oral
Experimental: (§1) In this Example, the safety and anti-ischemic effects of high plasma ranolazine levels in a large group of angina patients was evaluated and the duration of any effects during steady-state dosing with bid and tid regimens was assessed. In this Example, patients with chronic stable angina pectoris who were responsive to conventional antianginal drugs were treated with 3 ranolazine.2HCl dosing regimens: 267 mg tid, 400 mg bid and 400 mg tid IR Formulations of Example 1. Exercise testing parameters and ranolazine free base concentrations were determined at peak and trough plasma levels.
After each 1 week period, patients returned to the exercise laboratory in the morning, at least 1 hour after a light breakfast, for an ETT. This was designated the trough ETT; the trough ETTs were performed at the same time of day for each patient. After completing the trough ETT, the patient received the next scheduled blinded medication dose from the blister pack used that week. Another ETT was performed 1 hour after the administered dose. This was designated the peak ETT. Blood samples were obtained at trough (approximately 8 hours after dosing) and at peak (1 hour after dosing). Other standard laboratory tests were monitored regularly throughout the study.

[2] = system: patients with chronic stable angina pectoris; test: Exercise treadmill test (ETT), IR ranolazine.2HCl, placebo-controlled crossover (Example 3); format: in vivo, human; conditions: for Time to onset angina (mean) / Exercise Duration (mean) / Time to 1 mm ST depression (mean): all patients
Experimental: as §1
The study involved double-blind, placebo-controlled randomized treatment phase with 4 treatments (placebo, ranolazine.2HCl 400 mg bid, ranolazine.2HCl 267 mg tid, and ranolazine.2HCl 400 mg tid), 4 treatment sequences and 5 double-blind treatment periods in an extended period Latin square design on pre-qualified patients who were responsive to known antianginal therapy and had stable exercise times.
Human patients with chronic stable angina pectoris, of at least 3 months' duration, that had responded to conventional antianginal therapy were considered candidates. In addition, patients had to have electrocardiogrpahic (ECG) evidence of exercise-induced ischemia based upon horizontal or down-sloping ST-segment depression of ≧1 mm that persisted in 3 consecutive beats during an exercise stress test and an ECG pattern that would not interfere with interpretation of ST-segment changes. The latter criterion specifically excluded patients with left ventricular hypertrophy, pre-excitation, conduction abnormalities, or pacemaker rhythm. Other exclusion criteria included unstable angina or myocardial infarction within the preceding 3 months, heart failure defined as New York Heart Association Class HI or IV, significant valvular or congenital heart disease that was uncorrected, need for digoxin or long-acting nitrate therapy, labile diabetes mellitus, or other serious conditions that would confuse follow-up evaluation.
These immediate release ranolazine.2HCl dosing regimens (267 mg tid, 400 mg bid, 400 mg tid) and a placebo were administered during the treatment phase. Patients took one capsule containing either 267 mg or 400 mg of ranolazine dihydrochloride, or placebo at 8:00 a.m., 4:00 p.m., 8:00 p.m. and 12:00 a.m. All capsules were identical in appearance. Patients were randomized to 1 of 4 treatment sequences, with 25% of the patients assigned to each sequence. Each treatment was administered for 1 week, with one treatment repeated during a fifth 1 week period.
To qualify patients receiving their usual antianginal medications underwent a screening exercise treadmill test (ETT-1) using a Sheffield modified Bruce protocol. If the time to onset angina was […], an antianginal drug was withdrawn and treatment with single-blind placebo was initiated. After 1 to 2 weeks, patients returned for another ETT (ETT-2). If the time to onset angina decreased by 1 minute compared with ETT-1, the patient was considered to have completed the first qualifying ETT. If the decrease in time to onset angina was not ≧1 minute, a second antianginal drug could be withdrawn and the above sequence repeated. If necessary, a third antianginal drug could be withdrawn according to this procedure in order for the patient to qualify. Long-acting nitrates were always withdrawn first; beta-blockers; and calcium antagonists could be withdrawn in either order from patients not receiving long-acting nitrates. After the patient achieved the first qualifying ETT (ETT-2), a second qualifying ETT (ETT-3) was performed in which the time to onset angina had to be within i 15% of that observed during ETT-2. In addition, each of the qualifying ETTs had to have ECG signs of ischemia (≧1 mm horizontal or down-sloping ST-segment depression in 3 consecutive beats). Patients meeting these criteria were used in the study. […]

[3] = system: patients with stable angina; test: MARISA exercise testing (modified Bruce protocol), sustained release ranolazine; format: in vivo, human
Experimental: is the first study of sustained release ranolazine (SR) in stable angina. Methods: Patients withdrawn from other anti-anginal drugs with reproducible angina-limited exercise duration and ≧1 mm ST depression were randomized to Ran (500 mg bid, 1000 mg bit and 1500 mg bid) and matching placebo (Pbo) in a double-blind, four-period, Latin square crossover design. Exercise testing with a modified Bruce protocol was performed at both trough (12 hr after dosing) and peak (4 hr after dosing). Results: 49 centers in the USA, Czech Republic, Poland and Canada randomized 191 patients. 168 completed all 4 double-blind treatment periods; 7 more completed 3 of 4 periods.

[4] = Peak, ranolazine.2HCl IR 267 mg tid
[5] = Peak, ranolazine.2HCl IR 400 mg bid
[6] = Peak, ranolazine.2HCl IR 400 mg tid
[7] = Trough, ranolazine.2HCl IR 267 mg tid
[8] = Trough, ranolazine.2HCl IR 400 mg bid
[9] = Trough, ranolazine.2HCl IR 400 mg tid

COc1ccccc1OCC(O)CN1CCN(CC(=O)Nc2c(C)cccc2C)CC1 (racemic) [Ranolazine, (±)-N-(2,6-dimethylphenyl)-4-[2-hydroxy-3-(2-methoxyphenoxy)propyl]-1-piperazine-acetamide]
concentration at 1 h ([1]; female, 267 mg, Females, IR 267 mg tid, read-out: Ranolazine Plasma Concentration, Peak, mean (SD)): 1590 ng/mL
concentration at 8 h ([1]; female, 267 mg, Females, IR 267 mg tid, read-out: Ranolazine Plasma Concentration, Trough, mean (SD)): 316 ng/mL
concentration at 1 h ([1]; female, 400 mg, Females, IR 400 mg bid, read-out: Ranolazine Plasma Concentration, Peak, mean (SD)): 2170 ng/mL
concentration at 8 h ([1]; female, 400 mg, Females, IR 400 mg bid, read-out: Ranolazine Plasma Concentration, Trough, mean (SD)): 235 ng/mL
concentration at 1 h ([1]; female, 400 mg, Females, IR 400 mg tid, read-out: Ranolazine Plasma Concentration, Peak, mean (SD)): 2650 ng/mL
concentration at 8 h ([1]; female, 400 mg, Females, IR 400 mg tid, read-out: Ranolazine Plasma Concentration, Trough, mean (SD)): 505 ng/mL
concentration at 1 h ([1]; 267 mg, All Patients, IR 267 mg tid, read-out: Ranolazine Plasma Concentration, Peak, mean (SD)): 1350 ng/mL
concentration at 8 h ([1]; 267 mg, All Patients, IR 267 mg tid, read-out: Ranolazine Plasma Concentration, Trough, mean (SD)): 316 ng/mL
concentration at 1 h ([1]; 400 mg, All Patients, IR 400 mg bid, read-out: Ranolazine Plasma Concentration, Peak, mean (SD)): 1880 ng/mL
concentration at 8 h ([1]; 400 mg, All Patients, IR 400 mg bid, read-out: Ranolazine Plasma Concentration, Trough, mean (SD)): 235 ng/mL
concentration at 1 h ([1]; 400 mg, All Patients, IR 400 mg tid, read-out: Ranolazine Plasma Concentration, Peak, mean (SD)): 2130 ng/mL
concentration at 8 h ([1]; 400 mg, All Patients, IR 400 mg tid, read-out: Ranolazine Plasma Concentration, Trough, mean (SD)): 514 ng/mL
concentration at 8 h ([1]; across the 3 IR dosing regimens, read-out: Mean trough ranolazine plasma concentrations): 235 to 514 ng/mL
concentration at 1 h ([1]; across the 3 IR dosing regimens, read-out: plasma mean peak concentrations, ranolazine free base): 1350 to 2130 ng/mL
concentration at 1 h ([1]; male, 267 mg, Males, IR 267 mg tid, read-out: Ranolazine Plasma Concentration, Peak, mean (SD)): 1260 ng/mL
concentration at 8 h ([1]; male, 267 mg, Males, IR 267 mg tid, read-out: Ranolazine Plasma Concentration, Trough, mean (SD)): 316 ng/mL
concentration at 1 h ([1]; male, 400 mg, Males, IR 400 mg bid, read-out: Ranolazine Plasma Concentration, Peak, mean (SD)): 1760 ng/mL
concentration at 8 h ([1]; male, 400 mg, Males, IR 400 mg bid, read-out: Ranolazine Plasma Concentration, Trough, mean (SD)): 235 ng/mL
concentration at 1 h ([1]; male, 400 mg, Males, IR 400 mg tid, read-out: Ranolazine Plasma Concentration, Peak, mean (SD)): 1920 ng/mL
concentration at 8 h ([1]; male, 400 mg, Males, IR 400 mg tid, read-out: Ranolazine Plasma Concentration, Trough, mean (SD)): 518 ng/mL
Time to onset angina (mean) ([2]; Peak (1 hour after dose), ranolazine.2HCl IR 267 mg tid): 9.40 min
Time to onset angina (mean) ([2]; Peak (1 hour after dose), ranolazine.2HCl IR 400 mg bid): 9.33 min
Time to onset angina (mean) ([2]; Peak (1 hour after dose), ranolazine.2HCl IR 400 mg tid): 9.33 min
Exercise Duration (mean) [2, 4]: 10.87 min
Time to 1 mm ST depression (mean) [2, 4]: 9.99 min
Exercise Duration (mean) [2, 5]: 10.83 min
Time to 1 mm ST depression (mean) [2, 5]: 9.86 min
Exercise Duration (mean) [2, 6]: 10.84 min
Time to 1 mm ST depression (mean) [2, 6]: 9.94 min
Time to onset angina (mean) ([2]; Trough (approx. 8 hours after dosing), ranolazine.2HCl IR 267 mg tid): 8.78 min
Time to onset angina (mean) ([2]; Trough (approx. 8 hours after dosing), ranolazine.2HCl IR 400 mg bid): 8.77 min
Time to onset angina (mean) ([2]; Trough (approx. 8 hours after dosing), ranolazine.2HCl IR 400 mg tid): 8.65 min
Exercise Duration (mean) [2, 7]: 10.56 min
Time to 1 mm ST depression (mean) [2, 7]: 9.22 min
Exercise Duration (mean) [2, 8]: 10.55 min
Time to 1 mm ST depression (mean) [2, 8]: 9.22 min
Exercise Duration (mean) [2, 9]: 10.60 min
Time to 1 mm ST depression (mean) [2, 9]: 9.31 min
threshold plasma ranolazine free base concentration for anti-ischemic activity detected during ETT ([2]; estimated from peak and trough results): above 550 ng per mL
prolongation of time to onset of angina, duration of exercise and time to 1-mm ST-segment depression over placebo, on average ([2]; peak plasma concentrations, three dosing regimens): about 0.33 minutes
Time to 1 mm ST Depression ([3]; SR 500 mg bid, peak): 479 s
Time to Angina ([3]; SR 500 mg bid, peak): 452 s
Exercise Duration ([3]; SR 500 mg bid, peak (4 hr after dosing)): 532 s
Time to 1 mm ST Depression ([3]; SR 500 mg bid, trough): 470 s
Time to Angina ([3]; SR 500 mg bid, trough): 437 s
Exercise Duration ([3]; SR 500 mg bid, trough (12 hr after dosing)): 533 s
Time to 1 mm ST Depression ([3]; SR 1000 mg bid, peak): 502 s
Time to Angina ([3]; SR 1000 mg bid, peak): 474 s
Exercise Duration ([3]; SR 1000 mg bid, peak (4 hr after dosing)): 555 s
Time to 1 mm ST Depression ([3]; SR 1000 mg bid, trough): 491 s
Time to Angina ([3]; SR 1000 mg bid, trough): 457 s
Exercise Duration ([3]; SR 1000 mg bid, trough (12 hr after dosing)): 545 s
Time to 1 mm ST Depression ([3]; SR 1500 mg bid, peak): 508 s
Time to Angina ([3]; SR 1500 mg bid, peak): 487 s
Exercise Duration ([3]; SR 1500 mg bid, peak (4 hr after dosing)): 561 s
Time to 1 mm ST Depression ([3]; SR 1500 mg bid, trough): 514 s
Time to Angina ([3]; SR 1500 mg bid, trough): 472 s
Exercise Duration ([3]; SR 1500 mg bid, trough (12 hr after dosing)): 559 s
